Reference: patent US12686664B2, “SOCE inhibitors and therapeutic uses thereof” (Institut National de la Santé et de la Recherche Médicale …, priority 2020, dated 2026)
Counter-ions that a name gives are not always drawn. Like-named read-outs stand apart in the source and are kept apart here. Marks after values point to notes of the source that are not given here.

System: store-operated Ca^2+ entry in PLP-B lymphocytes
Test: Store-operated Ca2+ entry after thapsigargin depletion of ER Ca2+ stores in PLP-B lymphocytes
Type: cell-based
Details: for IC50: SOCE in PLP-B lymphocytes, average of three assays, ±0.5 μM
Experimental: The effects of the molecules developed were tested on PLP-B lymphocytes. Store-operated Ca^2+ entry was induced by depletion of Endoplasmic Reticulum Ca^2+ stores (ER Ca^2+ stores) with thapsigargin (Tg) in a Ca^2+-free medium and measured following the addition of 1.8 mM of CaCl2) in the extracellular medium. The results are compared to the results obtained for known SOCE inhibitors SKF-96365, GSK-7975A, Synta 66.

[1] = Lymphocyte, 50 μM, PLP-B lymphocytes, % of inhibition (−) or activation, DMSO control 100%, read-out: Effect on amplitude of SOCE Peak
[2] = Lymphocyte, 100 μM, PLP-B lymphocytes, % of inhibition (−) or activation, DMSO control 100%, read-out: Effect on amplitude of SOCE Peak
[3] = Lymphocyte, 10 μM, PLP-B lymphocytes, % of inhibition (−) or activation, DMSO control 100%, read-out: Effect on amplitude of SOCE Peak
[4] = Lymphocyte, 10 μM, thapsigargin (Tg) peak, PLP-B lymphocytes, % of inhibition (−) or activation, read-out: Effect on amplitude of Tg Peak
[5] = Lymphocyte, 50 μM, thapsigargin (Tg) peak, PLP-B lymphocytes, % of inhibition (−) or activation, read-out: Effect on amplitude of Tg Peak
[6] = Lymphocyte, 100 μM, thapsigargin (Tg) peak, PLP-B lymphocytes, % of inhibition (−) or activation, read-out: Effect on amplitude of Tg Peak
[7] = Lymphocyte, PLP-B lymphocytes, % of inhibition (−) or activation, DMSO control 100%, read-out: Effect on amplitude of SOCE Peak
[8] = Lymphocyte, thapsigargin (Tg) peak, PLP-B lymphocytes, % of inhibition (−) or activation, read-out: Effect on amplitude of Tg Peak
[9] = Lymphocyte, 1 μM, PLP-B lymphocytes, % of inhibition (−) or activation, DMSO control 100%, read-out: Effect on amplitude of SOCE Peak
[10] = Lymphocyte, 1 μM, thapsigargin (Tg) peak, PLP-B lymphocytes, % of inhibition (−) or activation, read-out: Effect on amplitude of Tg Peak

Compound | inhibition at 50 µM [1] [%] | inhibition at 100 µM [2] [%] | inhibition at 10 µM [3] [%] | inhibition at 10 µM [4] [%] | inhibition at 50 µM [5] [%] | inhibition at 100 µM [6] [%] | also measured
COc1ccc(COc2ccc(CCn3ccc(C(F)(F)F)n3)cc2)cc1 [6βq DAD 2.333] | 5 | 37 | – | – | – | – | –
FC(F)(F)c1ccn(CCc2ccc(OCCCc3ccccc3)cc2)n1 [6βt DAD 3.363] | 7.7 | 19.1 | – | – | – | – | –
COc1ccc(COc2ccc(CCn3nc(C(F)(F)F)cc3C(F)(F)F)cc2)cc1 [6βu DAD 2.334] | -0.2 | -0.4 | 2 | – | – | – | –
COc1ccc(CCOc2ccc(CCn3nc(C(F)(F)F)cc3C(F)(F)F)cc2)cc1 [6βv DAD 2.266] | 29 | 30 | – | – | – | – | –
COc1ccc(CCCOc2ccc(CCn3nc(C(F)(F)F)cc3C(F)(F)F)cc2)cc1 [6βw DAD 2.335] | -0.1 | 11.8 | 4.6 | – | – | – | –
COc1ccc(CCCOc2cccc(CCn3ccc(C(F)(F)F)n3)c2)cc1 [6βy DAD 3.531] | 34 | 64 | 13 | 17 | 23 | 30 | –
COc1ccc(CCOc2ccccc2CCn2nc(C(F)(F)F)cc2C(F)(F)F)cc1 [6βz DAD 3.536] | 37 | 40 | 30 | 9 | 12 | 8 | –
CS(=O)(=O)Oc1ccc(Cn2cnc3ccccc32)cc1 [8αa, 4-((1H-Benzo[d]imidazol-1-yl)methyl)phenyl methanesulfonate] | 9 | 23 | 20 | -1 | -5 | 7 | –
CS(=O)(=O)Oc1ccc(Cn2c(C(F)(F)F)nc3ccccc32)cc1 [8αc, 4-((2-(Trifluoromethyl)-1H-benzo[d]imidazol-1-yl)methyl)phenyl methane sulfonate] | 9 | 24 | 14 | -10 | -10 | 32 | –
CS(=O)(=O)Oc1ccc(Cn2cccn2)cc1 [8βa, 4-((1H-Pyrazol-1-yl)methyl)phenylmethanesulfonate] | – | – | – | – | – | – | Effect on amplitude of SOCE peak (10 μM, PLP-B lymphocytes, % of inhibition (−) or activation, DMSO control 100%): −30.0# %; Effect on amplitude of Tg Peak (10 μM, thapsigargin (Tg) peak, PLP-B lymphocytes, % of inhibition (−) or activation): −20.0# %; Effect on amplitude of SOCE peak (50 μM, PLP-B lymphocytes, % of inhibition (−) or activation, DMSO control 100%): −27.0# %; Effect on amplitude of Tg Peak (50 μM, thapsigargin (Tg) peak, PLP-B lymphocytes, % of inhibition (−) or activation): −14.0// %; Effect on amplitude of SOCE peak (100 μM, PLP-B lymphocytes, % of inhibition (−) or activation, DMSO control 100%): −25.0# %; Effect on amplitude of Tg Peak (100 μM, thapsigargin (Tg) peak, PLP-B lymphocytes, % of inhibition (−) or activation): −12.0// %
CS(=O)(=O)Oc1ccc(Cn2cncn2)cc1 [8βb, 4-((1H-1,2,4-Triazol-1-yl)methyl)phenyl methanesulfonate] | 41 | 35 | 27 | 3 | -2 | 6 | inhibition at 0.1 µM [7]: 19%; inhibition at 0.1 µM [8]: 23%; inhibition at 1 µM [9]: 23%; inhibition at 1 µM [10]: 9%
CS(=O)(=O)Oc1ccc(Cn2nc(C(F)(F)F)cc2C(F)(F)F)cc1 [8βc] | 22 | 31 | 12 | -4 | 2 | 21 | –
Oc1ccc(Cn2cnc3ccccc32)cc1 [9αa, 1-(4-hydroxyphenylmethyl)-1H-Benzo[d]imidazol] | 4 | -3 | -2 | -13 | 1 | 12 | –
Oc1ccc(Cn2c(C(F)(F)F)nc3ccccc32)cc1 [9αc, 1-(4-hydroxyphenylmethyl)-2-trifluoromethyl-1H-Benzo[d]imidazol] | 16 | 33 | 23 | 6 | -1 | -6 | –
Oc1ccc(Cn2cnc3cc(F)ccc32)cc1 [9αe] | 5 | 21 | -6 | 3 | 8 | 15 | –
c1ccc2c(c1)ncn2CCc1ccc(OCCc2ccc(OC3CCCCO3)cc2)cc1 (centres unmarked) [11αb, 1-(4-(4-((Tetrahydro-2H-pyran-2-yl)oxy)phenethoxy)phenethyl)-1H-benzo[d]imidazole] | 51 | – | 29 | -2 | 2 | – | inhibition at 0.1 µM [7]: -28%; inhibition at 0.1 µM [8]: -11%; inhibition at 1 µM [9]: -41%; percent change in peak amplitude vs DMSO control (negative = inhibition, positive = activation) at 1 µM [10]: 0%; inhibition at 5 µM [7]: -16%; inhibition at 5 µM [8]: 2%; IC50 (Lymphocyte): 6.8 µM
Fc1ccc2c(c1)ncn2CCc1ccc(OCCc2ccc(OC3CCCCO3)cc2)cc1 (centres unmarked) [11αc, 5-Fluoro-1-(4-(4-((tetrahydro-2H-pyran-2-yl)oxy)phenethoxy)phenethyl)-1H-benzo[d]imidazole] | 54 | 35 | 31 | 10 | 12 | -3 | inhibition at 0.1 µM [7]: -67%; inhibition at 0.1 µM [8]: -16%; inhibition at 1 µM [9]: -26%; inhibition at 1 µM [10]: -4%; IC50 (Lymphocyte): 1.6 µM
c1ccc2c(c1)cnn2CCc1ccc(OC2CCCCO2)cc1 (centres unmarked) [11αe, 1-(4-((Tetrahydro-2H-pyran-2-yl)oxy)phenethyl)-1H-indazole] | 54 | 88 | 33 | 8 | 9 | 20 | inhibition at 0.1 µM [7]: 23%; inhibition at 1 µM [9]: 20%; IC50 (Lymphocyte): 40 µM
c1ncn(CCc2ccc(OC3CCCCO3)cc2)n1 (centres unmarked) [11βa, 1-(4-((Tetrahydro-2H-pyran-2-yl)oxy)phenethyl)-1H-1,2,4-triazole] | 31 | 16 | 32 | 20 | 17 | 3 | –
Oc1ccc(CCn2cnc3ccccc32)cc1 [12αa, 1-(4-Hydroxyphenylethyl)-1H-benzo[d]imidazol hydrochloride] | 0.9 | -2.5 | -2.2 | -2.7 | -4.3 | -7.4 | –
Oc1ccc(CCOc2ccc(CCn3cnc4ccccc43)cc2)cc1 [12αb, 1-(4-(4-Hydroxyphenethoxy)phenethyl)-1H-benzo[d]imidazol hydrochloride] | -1 | 3 | -25 | -7 | -4 | – | percent change in peak amplitude vs DMSO control (negative = inhibition, positive = activation) at 100 µM [6]: 0%
Oc1ccc(CCOc2ccc(CCn3cnc4cc(F)ccc43)cc2)cc1 [12αc, 5-Fluoro-1-(4-(4-hydroxyphenethoxy)phenethyl)-1H-benzo[d]imidazol hydrochloride] | -3 | -1 | -20 | -11 | -2 | -5 | –
